Data: patent publication US11273250B2, “Devices, systems, and methods for excavating cancer cells” (GEORGIA TECH RESEARCH CORPORATION, priority 2010, dated 2022)

Assays:
tumor cells = experiment: Viability of tumor cells at different concentrations of cyclopamine; assay type: cell-based; details: concentration suggested for conjugation to the collagen hydrogel scaffold
Protocol: (§1) The smoothened inhibitor, cyclopamine, was evaluated to determine the effective drug concentration required to induce apoptosis in tumor cells. The viability of the tumors cells was measured at different concentrations of cyclopamine. Healthy cells (e.g., neurons and glia) were not affected by exposure to the drug.

[1] = system: Healthy cells (e.g., neurons and glia); experiment: Effect of cyclopamine exposure on healthy cells; assay type: cell-based
Protocol: as §1

CC1=C2C[C@H]3[C@@H](CC=C4C[C@@H](O)CC[C@@]43C)[C@@H]2CC[C@]12O[C@@H]1C[C@H](C)CN[C@H]1[C@H]2C [cyclopamine]
effective drug concentration required to induce apoptosis in tumor cells (tumor cells): 30 µM
effect of exposure to the drug on healthy cells [1]: not affected
